Source: the supplement of paper PMC13380429

Key:
Details in all cases: 72 h
[1] = system: Caco-2; experiment: relative viability EC50 (midpoint between 100% and the lowest measured viability); higher = less toxic
[2] = system: HepG2; experiment: as above
[3] = system: U2OS; experiment: as above
[4] = system: Calu-3; experiment: as above
[5] = system: Vero E6; experiment: as above
[6] = system: Caco-2; experiment: drug sensitivity score (DSS) for viability; higher = more toxic; extreme values may be limits of the assay
[7] = system: HepG2; experiment: as above
[8] = system: U2OS; experiment: as above
[9] = system: Calu-3; experiment: as above
[10] = system: Vero E6; experiment: as above
[11] = system: Caco-2; experiment: cell viability relative to DMSO; higher = less toxic
[12] = system: HepG2; experiment: as above
[13] = system: U2OS; experiment: as above
[14] = system: Calu-3; experiment: as above
[15] = system: Vero E6; experiment: as above

Structure (SMILES)	relative viability EC50 [1]	relative viability EC50 [2]	relative viability EC50 [3]	relative viability EC50 [4]	relative viability EC50 [5]	drug sensitivity score [6]	drug sensitivity score [7]	drug sensitivity score [8]	drug sensitivity score [9]	drug sensitivity score [10]	cell viability ([11]; 1 nM)	cell viability ([11]; 10 nM)	cell viability ([11]; 100 nM)	cell viability ([11]; 1000 nM)	cell viability ([11]; 10000 nM)	cell viability ([12]; 1 nM)	cell viability ([12]; 10 nM)	cell viability ([12]; 100 nM)	cell viability ([12]; 1000 nM)	cell viability ([12]; 10000 nM)	cell viability ([13]; 1 nM)	cell viability ([13]; 10 nM)	cell viability ([13]; 100 nM)	cell viability ([13]; 1000 nM)	cell viability ([13]; 10000 nM)	cell viability ([14]; 1 nM)	cell viability ([14]; 10 nM)	cell viability ([14]; 100 nM)	cell viability ([14]; 1000 nM)	cell viability ([14]; 10000 nM)	cell viability ([15]; 1 nM)	cell viability ([15]; 10 nM)	cell viability ([15]; 100 nM)	cell viability ([15]; 1000 nM)	cell viability ([15]; 10000 nM)
CCC1(CC)C(=O)NC(=O)N(C)C1=O [metharbital]	> 10 µM	> 10 µM	> 10 µM	> 10 µM	> 10 µM	0	0	0	0	0	94.3%	97.7%	104%	102%	93.1%	91.8%	104%	95.9%	102%	103%	100%	93.4%	99.1%	92.9%	97.1%	110%	92.6%	110%	98.4%	95%	93%	96.8%	94.1%	92.3%	103%
CCc1cc2c(cc1CC)CC(NC[C@H](O)c1ccc(O)c3[nH]c(=O)ccc13)C2 [indacaterol]	> 10 µM	> 10 µM	> 10 µM	> 10 µM	> 10 µM	0	0.2	0	0	0	89.7%	97%	101%	94.8%	96.4%	121%	115%	98.4%	115%	81%	106%	100%	104%	95.6%	95.4%	112%	94.2%	112%	101%	91.5%	96.8%	94.3%	96.8%	96.3%	94.2%
